Species: Rattus norvegicus
Test: DrugMatrix - Regimen: Daily Repeat
Type: toxicity, organism-based, Sprague-Dawley
Set-up: regimen Daily Repeat, gender Male, age 6-8 weeks
Conditions: in vivo, po, route oral GAVAGE, […]; for ABSOLUTE BASOPHIL / ABSOLUTE EOSINOPHIL / ABSOLUTE LYMPHOCYTE / ABSOLUTE MONOCYTE / ABSOLUTE SEGMENTED NEUTROPHIL / BASOPHIL / EOSINOPHIL / ERYTHROCYTE COUNT / HEMATOCRIT / HEMOGLOBIN / LEUKOCYTE COUNT / LYMPHOCYTE / MEAN CORPUSCULAR HEMOGLOBIN / MEAN CORPUSCULAR HEMOGLOBIN CONCENTRATION / MEAN CORPUSCULAR VOLUME / MONOCYTE / NEUTROPHIL / NUCLEATED RED BLOOD CELLS / PLATELET COUNT: tissue Blood; for ALANINE AMINOTRANSFERASE / ALBUMIN / ALKALINE PHOSPHATASE / ASPARTATE AMINOTRANSFERASE / BLOOD UREA NITROGEN / CARBON DIOXIDE / CHLORIDE / CHOLESTEROL / CREATINE PHOSPHOKINASE / CREATININE / GLUCOSE / LACTATE DEHYDROGENASE / LIPASE / PHOSPHORUS / POTASSIUM / SODIUM / TOTAL BILIRUBIN / TOTAL PROTEIN / URIC ACID: tissue Plasma
[1] = 0 mg/kg, 72 h, dose level Control, time 3 day
[2] = 0 mg/kg, 120 h, dose level Control, time 5 day
[3] = 20 mg/kg, 72 h, dose level Low, time 3 day
[4] = 20 mg/kg, 120 h, dose level Low, time 5 day

Compound: O=c1c(-c2ccc(O)cc2)coc2cc(O)cc(O)c12 [GENISTEIN]
- ABSOLUTE BASOPHIL [1]: 0 CELLS/uL
- ABSOLUTE EOSINOPHIL [1]: 14 CELLS/uL
- ABSOLUTE LYMPHOCYTE [1]: 11144.67 CELLS/uL
- ABSOLUTE MONOCYTE [1]: 22.5 CELLS/uL
- ABSOLUTE SEGMENTED NEUTROPHIL [1]: 535.5 CELLS/uL
- BASOPHIL [1]: 0%
- EOSINOPHIL [1]: 0.17%
- ERYTHROCYTE COUNT [1]: 5.08 x10E6/uL
- HEMATOCRIT [1]: 32.32%
- HEMOGLOBIN [1]: 12.87 G/DL
- LEUKOCYTE COUNT [1]: 11.72 x10E3/uL
- LYMPHOCYTE [1]: 94.67%
- MEAN CORPUSCULAR HEMOGLOBIN [1]: 25.37 pg
- MEAN CORPUSCULAR HEMOGLOBIN CONCENTRATION [1]: 39.85 G/DL
- MEAN CORPUSCULAR VOLUME [1]: 63.58 fL
- MONOCYTE [1]: 0.17%
- NEUTROPHIL [1]: 5%
- NUCLEATED RED BLOOD CELLS [1]: 0 /100WBC
- PLATELET COUNT [1]: 1084 x10E3/uL
- ALANINE AMINOTRANSFERASE [1]: 67.5 u/L
- ALBUMIN [1]: 4.02 G/DL
- ALKALINE PHOSPHATASE [1]: 374.17 u/L
- ASPARTATE AMINOTRANSFERASE [1]: 83.5 u/L
- BLOOD UREA NITROGEN [1]: 14.5 mg/dL
- CARBON DIOXIDE [1]: 30 mmol/L
- CHLORIDE [1]: 100.5 MEQ/L
- CHOLESTEROL [1]: 71.33 mg/dL
- CREATINE PHOSPHOKINASE [1]: 268.33 u/L
- CREATININE [1]: 0.16 mg/dL
- GLUCOSE [1]: 170.5 mg/dL
- LACTATE DEHYDROGENASE [1]: 81.17 u/L
- LIPASE [1]: 16.67 u/L
- PHOSPHORUS [1]: 10.07 mg/dL
- POTASSIUM [1]: 5.03 MEQ/L
- SODIUM [1]: 142.92 MEQ/L
- TOTAL BILIRUBIN [1]: 0.17 mg/dL
- TOTAL PROTEIN [1]: 5.63 G/DL
- URIC ACID [1]: 0.5 mg/dL
- ABSOLUTE BASOPHIL [2]: 0 CELLS/uL
- ABSOLUTE EOSINOPHIL [2]: 37.5 CELLS/uL
- ABSOLUTE LYMPHOCYTE [2]: 8049.5 CELLS/uL
- ABSOLUTE MONOCYTE [2]: 82.83 CELLS/uL
- ABSOLUTE SEGMENTED NEUTROPHIL [2]: 646.83 CELLS/uL
- BASOPHIL [2]: 0%
- EOSINOPHIL [2]: 0.5%
- ERYTHROCYTE COUNT [2]: 5.36 x10E6/uL
- HEMATOCRIT [2]: 33.9%
- HEMOGLOBIN [2]: 13.02 G/DL
- LEUKOCYTE COUNT [2]: 8.82 x10E3/uL
- LYMPHOCYTE [2]: 90.17%
- MEAN CORPUSCULAR HEMOGLOBIN [2]: 24.32 pg
- MEAN CORPUSCULAR HEMOGLOBIN CONCENTRATION [2]: 38.42 G/DL
- MEAN CORPUSCULAR VOLUME [2]: 63.32 fL
- MONOCYTE [2]: 1.17%
- NEUTROPHIL [2]: 8.17%
- NUCLEATED RED BLOOD CELLS [2]: 0.17 /100WBC
- PLATELET COUNT [2]: 1231.5 x10E3/uL
- ALANINE AMINOTRANSFERASE [2]: 62 u/L
- ALBUMIN [2]: 3.97 G/DL
- ALKALINE PHOSPHATASE [2]: 303.67 u/L
- ASPARTATE AMINOTRANSFERASE [2]: 84.5 u/L
- BLOOD UREA NITROGEN [2]: 14.83 mg/dL
- CARBON DIOXIDE [2]: 31.83 mmol/L
- CHLORIDE [2]: 97 MEQ/L
- CHOLESTEROL [2]: 68.83 mg/dL
- CREATINE PHOSPHOKINASE [2]: 411.33 u/L
- CREATININE [2]: 0.16 mg/dL
- GLUCOSE [2]: 170.17 mg/dL
- LACTATE DEHYDROGENASE [2]: 88.5 u/L
- LIPASE [2]: 9.5 u/L
- PHOSPHORUS [2]: 9.98 mg/dL
- POTASSIUM [2]: 5.72 MEQ/L
- SODIUM [2]: 141.62 MEQ/L
- TOTAL BILIRUBIN [2]: 0.1 mg/dL
- TOTAL PROTEIN [2]: 5.67 G/DL
- URIC ACID [2]: 0.52 mg/dL
- ABSOLUTE BASOPHIL [3]: 0 CELLS/uL
- ABSOLUTE EOSINOPHIL [3]: 0 CELLS/uL
- ABSOLUTE LYMPHOCYTE [3]: 8352.33 CELLS/uL
- ABSOLUTE MONOCYTE [3]: 117.33 CELLS/uL
- ABSOLUTE SEGMENTED NEUTROPHIL [3]: 697 CELLS/uL
- BASOPHIL [3]: 0%
- EOSINOPHIL [3]: 0%
- ERYTHROCYTE COUNT [3]: 4.71 x10E6/uL
- HEMATOCRIT [3]: 30.2%
- HEMOGLOBIN [3]: 12.1 G/DL
- LEUKOCYTE COUNT [3]: 9.17 x10E3/uL
- LYMPHOCYTE [3]: 91%
- MEAN CORPUSCULAR HEMOGLOBIN [3]: 25.73 pg
- MEAN CORPUSCULAR HEMOGLOBIN CONCENTRATION [3]: 40.07 G/DL
- MEAN CORPUSCULAR VOLUME [3]: 64.27 fL
- MONOCYTE [3]: 1.33%
- NEUTROPHIL [3]: 7.67%
- NUCLEATED RED BLOOD CELLS [3]: 0 /100WBC
- PLATELET COUNT [3]: 970.67 x10E3/uL
- ALANINE AMINOTRANSFERASE [3]: 69.33 u/L
- ALBUMIN [3]: 3.73 G/DL
- ALKALINE PHOSPHATASE [3]: 415.33 u/L
- ASPARTATE AMINOTRANSFERASE [3]: 87 u/L
- BLOOD UREA NITROGEN [3]: 14 mg/dL
- CARBON DIOXIDE [3]: 31.33 mmol/L
- CHLORIDE [3]: 101.33 MEQ/L
- CHOLESTEROL [3]: 55.33 mg/dL
- CREATINE PHOSPHOKINASE [3]: 256 u/L
- CREATININE [3]: 0.16 mg/dL
- GLUCOSE [3]: 157.33 mg/dL
- LACTATE DEHYDROGENASE [3]: 72 u/L
- LIPASE [3]: 10.33 u/L
- PHOSPHORUS [3]: 9.33 mg/dL
- POTASSIUM [3]: 5.54 MEQ/L
- SODIUM [3]: 144.67 MEQ/L
- TOTAL BILIRUBIN [3]: 0.2 mg/dL
- TOTAL PROTEIN [3]: 5.43 G/DL
- URIC ACID [3]: 0.37 mg/dL
- ABSOLUTE BASOPHIL [4]: 0 CELLS/uL
- ABSOLUTE EOSINOPHIL [4]: 0 CELLS/uL
- ABSOLUTE LYMPHOCYTE [4]: 8287 CELLS/uL
- ABSOLUTE MONOCYTE [4]: 65 CELLS/uL
- ABSOLUTE SEGMENTED NEUTROPHIL [4]: 1548 CELLS/uL
- BASOPHIL [4]: 0%
- EOSINOPHIL [4]: 0%
- ERYTHROCYTE COUNT [4]: 4.93 x10E6/uL
- HEMATOCRIT [4]: 31.57%
- HEMOGLOBIN [4]: 12.13 G/DL
- LEUKOCYTE COUNT [4]: 9.9 x10E3/uL
- LYMPHOCYTE [4]: 84%
- MEAN CORPUSCULAR HEMOGLOBIN [4]: 24.67 pg
- MEAN CORPUSCULAR HEMOGLOBIN CONCENTRATION [4]: 38.43 G/DL
- MEAN CORPUSCULAR VOLUME [4]: 64.13 fL
- MONOCYTE [4]: 1%
- NEUTROPHIL [4]: 15%
- NUCLEATED RED BLOOD CELLS [4]: 0.33 /100WBC
- PLATELET COUNT [4]: 1213.67 x10E3/uL
- ALANINE AMINOTRANSFERASE [4]: 61.33 u/L
- ALBUMIN [4]: 3.83 G/DL
- ALKALINE PHOSPHATASE [4]: 296.67 u/L
- ASPARTATE AMINOTRANSFERASE [4]: 87.33 u/L
- BLOOD UREA NITROGEN [4]: 17 mg/dL
- CARBON DIOXIDE [4]: 33 mmol/L
- CHLORIDE [4]: 98.5 MEQ/L
- CHOLESTEROL [4]: 69.67 mg/dL
- CREATINE PHOSPHOKINASE [4]: 277.33 u/L
- CREATININE [4]: 0.12 mg/dL
- GLUCOSE [4]: 143.33 mg/dL
- LACTATE DEHYDROGENASE [4]: 87.67 u/L
- LIPASE [4]: 11.67 u/L
- PHOSPHORUS [4]: 10.4 mg/dL
- POTASSIUM [4]: 5.69 MEQ/L
- SODIUM [4]: 143.35 MEQ/L
- TOTAL BILIRUBIN [4]: 0.0667 mg/dL
- TOTAL PROTEIN [4]: 5.57 G/DL
- URIC ACID [4]: 0.43 mg/dL

Source: ChEMBL document CHEMBL3885881, “DrugMatrix”
